Measured values: patent publication US20090099195A1 (ASTRAZENECA AB, priority 2007, published 2009)

What follows are compounds tested against T1, hP2X3 (human Purinergic P2X receptors subtype 3), clone B (Homo sapiens, UniProt P56373) (assay: hP2X3 FLIPR calcium (Fluo-4) antagonist assay, clone B). Conditions: Human P2X3 FLIPR Clone B IC50 (nM), RLE cells expressing hP2X3 clone B (NM_002559); agonist 500 nM α,β-methylene-ATP.
T1 sequence (P56373 1-397): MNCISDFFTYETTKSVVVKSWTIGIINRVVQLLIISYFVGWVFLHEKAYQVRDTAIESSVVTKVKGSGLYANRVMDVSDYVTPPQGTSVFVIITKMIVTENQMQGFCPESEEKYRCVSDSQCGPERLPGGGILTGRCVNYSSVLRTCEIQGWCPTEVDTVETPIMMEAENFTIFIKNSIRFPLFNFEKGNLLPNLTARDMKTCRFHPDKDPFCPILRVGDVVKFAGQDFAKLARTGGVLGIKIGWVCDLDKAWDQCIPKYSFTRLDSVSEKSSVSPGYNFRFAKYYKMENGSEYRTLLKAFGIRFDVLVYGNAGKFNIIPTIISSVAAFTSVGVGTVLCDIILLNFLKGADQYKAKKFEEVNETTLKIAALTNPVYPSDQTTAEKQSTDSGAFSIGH

SMILES	IC50
CC(C)N1Cc2c(NCc3cnc4ccccc4c3)nc(N3CCN(S(C)(=O)=O)CC3)nc2C1=O [Example 329, 6-(1-methylethyl)-2-[4-(methylsulfonyl)piperazin-1-yl]-4-[(quinolin-3-ylmethyl)amino]-5,6-dihydro-7H-pyrrolo[3,4-d]pyrimidin-7-one]	8900 nM
CC(=O)N1CCN(c2nc3c(c(N4CCC[C@@H]4C(=O)N4CCC(C)CC4)n2)CN(C(C)C)C3=O)CC1 [Example 303, 4-(4-acetylpiperazin-1-yl)-2-[(2R)-2-(4-methylpiperidine-1-carbonyl)pyrrolidin-1-yl]-8-propan-2-yl-3,5,8-triazabicyclo[4.3.0]nona-2,4,10-trien-7-one]	2300 nM
CC(C)N1Cc2c(NC(c3ccccc3)c3ccc(Cl)cc3)nc(N3CC4CC3CN4C)nc2C1=O (stereo not shown) [Example 20, 4-{[(4-chlorophenyl)(phenyl)methyl]amino}-6-isopropyl-2-(5-methyl-2,5-diazabicyclo[2.2.1]hept-2-yl)-5,6-dihydro-7H-pyrrolo[3,4-d]pyrimidin-7-one]	100 nM
CC(C)N1Cc2c(NC(C)(C)Cc3ccc(Cl)cc3)nc(N3CCN(C(=O)N(C)C)CC3)nc2C1=O [Example 127, 4-(4-{[2-(4-chlorophenyl)-1,1-dimethylethyl]amino}-6-isopropyl-7-oxo-6,7-dihydro-5H-pyrrolo[3,4-d]pyrimidin-2-yl)-N,N-dimethylpiperazine-1-carboxamide]	2200 nM
Cc1ccc(C(Nc2nc(NCCN(C)C)nc3c2CN(C(C)C)C3=O)c2ccccc2)cc1 (stereo not shown) [Example 7, 2-{[2-(dimethylamino)ethyl]amino}-6-isopropyl-4-{[(4-methylphenyl)(phenyl)methyl]amino}-5,6-dihydro-7H-pyrrolo[3,4-d]pyrimidin-7-one]	85 nM
COCC(C)N1Cc2c(NC(C)(C)Cc3ccc(F)cc3)nc(N3CCN(C(C)=O)CC3)nc2C1=O (stereo not shown) [Example 314, 2-(4-acetylpiperazin-1-yl)-4-(1-(4-fluorophenyl)-2-methylpropan-2-ylamino)-6-(1-methoxypropan-2-yl)-5H-pyrrolo[3,4-d]pyrimidin-7(6H)-one]	670 nM
CC(C)N1Cc2c(NCc3cnc4ccccc4c3)nc(N3CCn4cnnc4C3)nc2C1=O [Example 137, 2-(5,6-Dihydro-[1,2,4]triazolo[4,3-a]pyrazin-7(8H)-yl)-6-isopropyl-4-(quinolin-3-ylmethylamino)-5H-pyrrolo[3,4-d]pyrimidin-7(6H)-one]	680 nM
COc1ccccc1CC1CCCN1c1nc(N2CCN(C(C)=O)CC2)nc2c1CN(C(C)C)C2=O (stereo not shown) [Example 290, 2-(4-acetylpiperazin-1-yl)-6-isopropyl-4-[2-[(2-methoxyphenyl)methyl]pyrrolidin-1-yl]-5H-pyrrolo[3,4-d]pyrimidin-7-one]	2000 nM
CC(=O)N1CCN(c2nc3c(c(N4CCC[C@@H]4C(=O)OCc4ccc(Cl)cc4)n2)CN(C(C)C)C3=O)CC1 [Example 301, (4-chlorophenyl)methyl (2R)-1-[4-(4-acetylpiperazin-1-yl)-7-oxo-8-propan-2-yl-3,5,8-triazabicyclo[4.3.0]nona-1,3,5-trien-2-yl]pyrrolidine-2-carboxylate]	2500 nM
CC(C)N1Cc2c(NC(C)(C)Cc3ccc(Cl)cc3)nc(NCCN3CCCC3=O)nc2C1=O [Example 70, 4-{[2-(4-chlorophenyl)-1,1-dimethylethyl]amino}-6-isopropyl-2-{[2-(2-oxopyrrolidin-1-yl)ethyl]amino}-5,6-dihydro-7H-pyrrolo[3,4-d]pyrimidin-7-one]	780 nM
CCOc1cccc([C@@H](C)Nc2nc(N3CCN(C(C)=O)CC3)nc3c2CN(C(C)C)C3=O)c1 [Example 156, (R)-2-(4-acetylpiperazin-1-yl)-4-(1-(3-ethoxyphenyl)ethylamino)-6-isopropyl-5H-pyrrolo[3,4-d]pyrimidin-7(6H)-one]	830 nM
CC(=O)N1CCN(c2nc(NC(C)Cc3ccc(F)cc3)c3c(n2)C(=O)N(C(C)C)C3)CC1 (stereo not shown) [Example 12, 2-(4-acetylpiperazin-1-yl)-4-{[2-(4-fluorophenyl)-1-methylethyl]amino}-6-isopropyl-5,6-dihydro-7H-pyrrolo[3,4-d]pyrimidin-7-one]	3900 nM
CC(C)N1Cc2c(NC(C)(C)Cc3ccc(Cl)cc3)nc(N3CCN(C=O)CC3)nc2C1=O [Example 128, 4-(4-{[2-(4-chlorophenyl)-1,1-dimethylethyl]amino}-6-isopropyl-7-oxo-6,7-dihydro-5H-pyrrolo[3,4-d]pyrimidin-2-yl)piperazine-1-carbaldehyde]	280 nM
CC(=O)N1CCN(c2nc(N[C@@H](C)c3cnc4ccccc4c3)c3c(n2)C(=O)N(C(C)C)C3)CC1 [Example 234, (S)-2-(4-acetylpiperazin-1-yl)-6-isopropyl-4-(1-(quinolin-3-yl)ethylamino)-5H-pyrrolo[3,4-d]pyrimidin-7(6H)-one]	1100 nM
CC(=O)N1CCN(c2nc(NC(C)(C)Cc3ccc(F)cc3)c3c(n2)C(=O)N(C(C)C(C)C)C3)CC1 (stereo not shown) [Example 313, 2-(4-acetylpiperazin-1-yl)-4-(1-(4-fluorophenyl)-2-methylpropan-2-ylamino)-6-(3-methylbutan-2-yl)-5H-pyrrolo[3,4-d]pyrimidin-7(6H)-one]	280 nM
CCN(CC)c1nc(NC(c2ccccc2)c2ccccc2)c2c(n1)C(=O)N(C(C)C)C2 [Example 89, 4-(Benzhydryl-amino)-2-diethylamino-6-isopropyl-5,6-dihydro-pyrrolo[3,4-d]pyrimidin-7-one]	6200 nM
CC(=O)N1CCN(c2nc3c(c(N4CCC[C@H]4Cc4ccccc4)n2)CN(C(C)C)C3=O)CC1 [Example 117, 2-(4-acetylpiperazin-1-yl)-4-[(2S)-2-benzylpyrrolidin-1-yl]-6-isopropyl-5,6-dihydro-7H-pyrrolo[3,4-d]pyrimidin-7-one]	3700 nM
CC(=O)N1CCN(c2nc3c(c(N4CCCC4Cc4ccccc4)n2)CN(C(C)C)C3=O)CC1 (stereo not shown) [Example 54, 2-(4-acetylpiperazin-1-yl)-4-(2-benzylpyrrolidin-1-yl)-6-isopropyl-5,6-dihydro-7H-pyrrolo[3,4-d]pyrimidin-7-one]	240 nM
CC(=O)N1CCN(c2nc(NC(c3ccc(C(C)C)cc3)C(C)C)c3c(n2)C(=O)N(C(C)C)C3)CC1 (stereo not shown) [Example 10, 2-(4-acetylpiperazin-1-yl)-6-isopropyl-4-{[1-(4-isopropylphenyl)-2-methylpropyl]amino}-5,6-dihydro-7H-pyrrolo[3,4-d]pyrimidin-7-one]	1200 nM
CC(C)N1Cc2c(NC(c3ccccc3)c3ccccc3)nc(N3CCN(C(=O)C4CC4)CC3)nc2C1=O [Example 79, 4-(Benzhydryl-amino)-2-(4-cyclopropanecarbonyl-piperazin-1-yl)-6-isopropyl-5,6-dihydro-pyrrolo[3,4-d]pyrimidin-7-one]	130 nM
CC(=O)N1CCN(c2nc(NCC(c3ccccc3)c3ccccc3)c3c(n2)C(=O)N(C(C)C)C3)CC1 [Example 91, 2-(4-acetylpiperazin-1-yl)-4-[(2,2-diphenylethyl)amino]-6-isopropyl-5,6-dihydro-7H-pyrrolo[3,4-d]pyrimidin-7-one]	100 nM
CC(=O)N1CCN(c2nc3c(c(N(Cc4cc5ccccc5cn4)CC(F)F)n2)CN(C(C)C)C3=O)CC1 [Example 256, 2-(4-acetylpiperazin-1-yl)-4-((2,2-difluoroethyl)(isoquinolin-3-ylmethyl)amino)-6-isopropyl-5H-pyrrolo[3,4-d]pyrimidin-7(6H)-one]	46 nM
CC(C)C(=O)N1CCN(c2nc(NC(c3ccccc3)c3ccccc3)c3c(n2)C(=O)N(C(C)C)C3)CC1 [Example 80, 4-(Benzhydryl-amino)-2-(4-isobutyryl-piperazin-1-yl)-6-isopropyl-5,6-dihydro-pyrrolo[3,4-d]pyrimidin-7-one]	190 nM
CC(=O)N1CCN(c2nc3c(c(N(Cc4cc5ccccc5cn4)C(C)C)n2)CN(C(C)C)C3=O)CC1 [Example 254, 2-(4-acetylpiperazin-1-yl)-6-isopropyl-4-(isopropyl(isoquinolin-3-ylmethyl)amino)-5H-pyrrolo[3,4-d]pyrimidin-7(6H)-one]	75 nM
CC(C)N1Cc2c(NC(c3ccc(F)cc3)c3ccc(F)cc3)nc(N3CC4CC3CN4C)nc2C1=O (stereo not shown) [Example 23, 4-{[bis(4-fluorophenyl)methyl]amino}-6-isopropyl-2-(5-methyl-2,5-diazabicyclo[2.2.1]hept-2-yl)-5,6-dihydro-7H-pyrrolo[3,4-d]pyrimidin-7-one]	210 nM
CCOc1ccc(CN(CC2CC2)c2nc(N3CCN(C(C)=O)CC3)nc3c2CN(C(C)C)C3=O)cc1 [Example 162, 2-(4-acetylpiperazin-1-yl)-4-((cyclopropylmethyl)(4-ethoxybenzyl)amino)-6-isopropyl-5H-pyrrolo[3,4-d]pyrimidin-7(6H)-one]	950 nM
CC(=O)N1CCN(c2nc(NCc3cn(C4CCCC4)nc3C)c3c(n2)C(=O)N(C(C)C)C3)CC1 [Example 152, 4-(4-acetylpiperazin-1-yl)-2-[(1-cyclopentyl-3-methyl-pyrazol-4-yl)methylamino]-8-propan-2-yl-3,5,8-triazabicyclo[4.3.0]nona-2,4,10-trien-7-one]	270 nM
CC(C)N1Cc2c(nc(N3CCNC(=O)C3)nc2N2CCCC2Cc2ccc(Cl)cc2)C1=O (stereo not shown) [Example 49, 4-[2-(4-chlorobenzyl)pyrrolidin-1-yl]-6-isopropyl-2-(3-oxopiperazin-1-yl)-5,6-dihydro-7H-pyrrolo[3,4-d]pyrimidin-7-one]	2000 nM
